Drawing on patent publication US5952390A, “10-substituted 1,8-dihydroxy-9(10H) anthracenone pharmaceuticals” (Teva Pharmaceutical Industries Ltd., priority 1998, dated 1999), this text covers inhibition, kDPPH and IC50 for 1 molecule.

The target of test [1] is T1, 5-LO in bovine PMNL (Bos taurus, UniProt F1MQ78).
T1 construct: endogenous in cells; host or cells: polymorphonuclear leukocytes isolated from bovine blood
T1 sequence (F1MQ78 1-674): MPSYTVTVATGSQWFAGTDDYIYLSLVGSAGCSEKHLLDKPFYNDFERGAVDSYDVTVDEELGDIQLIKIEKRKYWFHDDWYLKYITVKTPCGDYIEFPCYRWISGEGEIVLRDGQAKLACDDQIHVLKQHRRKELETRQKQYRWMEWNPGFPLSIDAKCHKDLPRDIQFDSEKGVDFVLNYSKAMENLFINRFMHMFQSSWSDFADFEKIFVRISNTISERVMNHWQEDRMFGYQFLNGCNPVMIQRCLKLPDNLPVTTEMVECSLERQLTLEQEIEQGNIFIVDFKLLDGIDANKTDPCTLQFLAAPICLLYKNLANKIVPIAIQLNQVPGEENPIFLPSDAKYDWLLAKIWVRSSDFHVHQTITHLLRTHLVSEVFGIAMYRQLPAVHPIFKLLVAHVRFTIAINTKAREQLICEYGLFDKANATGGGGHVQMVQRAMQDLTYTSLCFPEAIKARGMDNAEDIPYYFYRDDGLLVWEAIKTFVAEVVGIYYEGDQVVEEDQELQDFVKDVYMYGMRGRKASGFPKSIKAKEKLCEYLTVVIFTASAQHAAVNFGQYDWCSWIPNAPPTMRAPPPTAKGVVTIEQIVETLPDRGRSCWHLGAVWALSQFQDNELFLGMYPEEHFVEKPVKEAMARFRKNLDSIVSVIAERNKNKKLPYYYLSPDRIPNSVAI
Briefly: Bovine PMNL 5-lipoxygenase assay (inhibition of 5-HETE and LTB4 biosynthesis). In kind it is cell-based. The following applies: at 30 μM.

A short description of test [2]: Reducing activity toward DPPH. The settings on record: Table I (Addendum); equimolar amount of test compound. On the procedure: This assay followed generally the procedures of Blois, M. S., "Antioxidant Determinations by the Use of a Stable Free Radical", Nature, 181, 1199-1200 (1958) and Kato, K. et al., "Studies on Scavengers of Active Oxygen Species. 1. Synthesis and Biological Activity of 2-O-Alkylascorbic Acids", J. Med. Chem., 31, 793-798 (1988). In time studies, 1 ml of test compound solution (10^-4 M) was added to 1 ml of DPPH solution (10^-4 M), each in acetone/PBS (1+1 V/V), and the reduction of DPPH was followed spectrophotometrically at 516 nm. Plots of the reciprocal of DPPH concentrations against time gave straight lines, and the second-orderrate constants were obtained from the slopes and are expressed as mean values (n=3-6). In the cases where DPPH was very fast approximate values are given and expressed as kDPPH >100 or kDPPH >>100M^-1s^-1.
Because a radical scavenging antioxidant reacts rapidly with the stable free radical 2,2-diphenyl-1-picrylhydrazyl (DPPH), Blois, M. S., "Antioxidant Determination by the Use of a Stable Free Radical", Nature, 181, 1199-1200 (1958); Kato, K. et al., "Studies on Scavengers of Active Oxygen Species. I. Synthesis and Biological Activity of 2-O-Alkylascorbic Acids", J. Med. Chem., 31, 793-798 (1988), the reactivities of the new compounds with DPPH were determined by decrease in absorbance at 516 nm.
Background: The DPPH test is a chemical assay of radical scavenging.

Test [3] can be described thus: Lipid peroxidation in bovine brain phospholipid liposomes. The following applies: Table I (Addendum); n = 3 or more; standard errors average 20%; read-out: LPO IC50. On the procedure: Phospholipids were prepared essentially as described by Gutteridge, J. M. C., "The Measurement of Malondialdehyde in Peroxidised Ox-Brain Phospholipid Liposomes", Anal. Biochem., 82, 76-82 (1977). Bovine brain, cooled on ice, was freed from blood vessels and washed repeatedly with 0.15M NaCl, pH 7.4. It was cut to pieces and then macerated with an ultra-turrax, passed through a close-meshed sieve, and extracted four times with four times the volume of acetone. The extraction mixture was filtered by suction to remove the acetone, the residue was dried under vacuum, and then repeatedly extracted with petroleum ether (40-60) using twice the volume of the original brain homogenate. The combined extracts were filtered, dried at 45° C., and dissolved in ether (one fifth of the original brain volume). The mixture was treated with five times the volume of acetone, and the resulting precipitate was collected by suction-filtration, dried and stored under N2 at -20° C. in the dark. Bovine brain phospholipids were weighed into glass tubes and shaken in a vortex mixer (Heidolph) in the presence of five small glass beads (.phi. 4 mm) for 1 min. […]
The following reagents were added to glass tubes in the order and at the final concentrations stated. […] The organic layer was separated by centrifugation at 3000 rpm (15 min) and the absorbance at 532 nm was measured against butanol.

Each structure is given as a SMILES string. Like-named read-outs stand apart in the source and are kept apart here.

With `CCCC(=O)C1c2cccc(O)c2C(=O)c2c(O)cccc21` [Butantrone, 10-Butyryl-Dithranol], the inhibition at 30 µM in test [1] (PMNL, Table I (Addendum), read-out: 5-LO percent inhibition (value in parentheses)) stood at 38%; in test [1] (bovine PMNL, read-out: inhibition at 30 μM), 38%. The same molecule yielded a kDPPH in test [2] of 7.0 ± 0.6 M⁻¹ s⁻¹. Besides, the IC50 in test [3] is 4 µM.

Broadly, the inhibition is the share of the control response that was lost under treatment. As a reminder, the IC50 is the concentration that gives 50% inhibition.
